For the series the following is noted: 101.33 kPa, Liquid, transient hot wire.

The structures appear in SMILES notation. Numbers after ± are expanded uncertainties.

Consider `CCCCn1cc[n+](C)c1.O=S(=O)([O-])C(F)(F)F` [1-butyl-3-methylimidazolium trifluoromethanesulfonate], for which the thermal conductivity was 0.147 ± 0.01 W/m/K (293 K); 0.146 ± 0.01 W/m/K (303 K); 0.145 ± 0.01 W/m/K (313 K); 0.144 ± 0.01 W/m/K (323 K); 0.144 ± 0.01 W/m/K (333 K); 0.143 ± 0.01 W/m/K (343 K). Further, where the note is “353 K”, the thermal conductivity is reported as 0.142 ± 0.01 W/m/K.
Turning to `CCCC[N+]1(C)CCCC1.O=S(=O)([N-]S(=O)(=O)C(F)(F)F)C(F)(F)F`, the thermal conductivity reads like this: (293 K) 0.125 ± 0.01 W/m/K; (303 K) 0.125 ± 0.01 W/m/K; (313 K) 0.124 ± 0.01 W/m/K; (323 K) 0.124 ± 0.01 W/m/K.
With `CCOS(=O)(=O)[O-].CCn1cc[n+](C)c1` [1-ethyl-3-methylimidazolium ethyl sulfate], the thermal conductivity by setting is: (293 K) 0.182 ± 0.01 W/m/K; (303 K) 0.181 ± 0.01 W/m/K; (313 K) 0.181 ± 0.01 W/m/K; (323 K) 0.179 ± 0.01 W/m/K; (333 K) 0.179 ± 0.01 W/m/K; (343 K) 0.178 ± 0.01 W/m/K. In addition, under “353 K”, the thermal conductivity was determined as 0.177 ± 0.01 W/m/K.
`CCn1cc[n+](C)c1.O=S(=O)([N-]S(=O)(=O)C(F)(F)F)C(F)(F)F`: the thermal conductivity is, setting by setting: (293 K) 0.13 ± 0.01 W/m/K; (303 K) 0.13 ± 0.01 W/m/K; (313 K) 0.129 ± 0.01 W/m/K; (323 K) 0.129 ± 0.01 W/m/K; (333 K) 0.129 ± 0.01 W/m/K; (343 K) 0.129 ± 0.01 W/m/K. Further, the thermal conductivity (353 K) is given as 0.128 ± 0.01 W/m/K.
Consider `CCCCCC[n+]1ccn(C)c1.O=S(=O)([N-]S(=O)(=O)C(F)(F)F)C(F)(F)F`, for which the thermal conductivity by setting is: (293 K) 0.127 ± 0.01 W/m/K; (303 K) 0.127 ± 0.01 W/m/K; (313 K) 0.127 ± 0.01 W/m/K; (323 K) 0.126 ± 0.01 W/m/K; (333 K) 0.125 ± 0.01 W/m/K; (343 K) 0.125 ± 0.01 W/m/K. For the same compound, the thermal conductivity (353 K) amounted to 0.125 ± 0.01 W/m/K.
In the case of `CCCCCCCCCCn1cc[n+](C)c1.O=S(=O)([N-]S(=O)(=O)C(F)(F)F)C(F)(F)F`, the thermal conductivity turned out to be 0.132 ± 0.01 W/m/K (293 K); 0.131 ± 0.01 W/m/K (303 K); 0.13 ± 0.01 W/m/K (313 K); 0.129 ± 0.01 W/m/K (323 K); 0.128 ± 0.01 W/m/K (333 K); 0.128 ± 0.01 W/m/K (343 K). Also, the thermal conductivity (353 K) is 0.128 ± 0.01 W/m/K.
Turning to `CCCCCCCCCCCCCC[P+](CCCCCC)(CCCCCC)CCCCCC.O=S(=O)([N-]S(=O)(=O)C(F)(F)F)C(F)(F)F`, the thermal conductivity runs as follows: (293 K) 0.144 ± 0.01 W/m/K; (303 K) 0.143 ± 0.01 W/m/K; (313 K) 0.142 ± 0.01 W/m/K; (323 K) 0.141 ± 0.01 W/m/K; (333 K) 0.141 ± 0.01 W/m/K; (343 K) 0.14 ± 0.01 W/m/K. In addition, the thermal conductivity (353 K) was 0.139 ± 0.01 W/m/K.
`CCCCCCCCCCCCCC[P+](CCCCCC)(CCCCCC)CCCCCC.[Cl-]` [trihexyl(tetradecyl)phosphonium chloride]: the thermal conductivity amounted to 0.161 ± 0.01 W/m/K (293 K); 0.16 ± 0.01 W/m/K (303 K); 0.159 ± 0.01 W/m/K (313 K); 0.157 ± 0.01 W/m/K (323 K); 0.157 ± 0.01 W/m/K (333 K); 0.156 ± 0.01 W/m/K (343 K). Besides, the thermal conductivity (353 K) amounted to 0.155 ± 0.01 W/m/K.
For `CCCC[N+]1(C)CCCC1.FC(F)(F)C(F)(F)[P-](F)(F)(F)(C(F)(F)C(F)(F)F)C(F)(F)C(F)(F)F`, the thermal conductivity (293 K) worked out at 0.107 ± 0.01 W/m/K; the thermal conductivity (303 K) worked out at 0.106 ± 0.01 W/m/K; the thermal conductivity (313 K) amounted to 0.106 ± 0.01 W/m/K; the thermal conductivity (323 K) is listed as 0.105 ± 0.01 W/m/K; the thermal conductivity (333 K) was 0.105 ± 0.01 W/m/K; the thermal conductivity (343 K) stood at 0.105 ± 0.01 W/m/K. Also, under “353 K”, the thermal conductivity came to 0.105 ± 0.01 W/m/K.
In the case of `CCCCCCCCn1cc[n+](C)c1.O=S(=O)([N-]S(=O)(=O)C(F)(F)F)C(F)(F)F`, the thermal conductivity by setting is: (293 K) 0.128 ± 0.01 W/m/K; (303 K) 0.128 ± 0.01 W/m/K; (313 K) 0.128 ± 0.01 W/m/K; (323 K) 0.126 ± 0.01 W/m/K; (333 K) 0.126 ± 0.01 W/m/K; (343 K) 0.125 ± 0.01 W/m/K. The thermal conductivity (353 K) came to 0.126 ± 0.01 W/m/K.
Turning to `CCCC[n+]1ccn(C)c1.O=S(=O)([N-]S(=O)(=O)C(F)(F)F)C(F)(F)F`, the thermal conductivity by setting is: (293 K) 0.128 ± 0.01 W/m/K; (303 K) 0.127 ± 0.01 W/m/K; (313 K) 0.127 ± 0.01 W/m/K; (323 K) 0.126 ± 0.01 W/m/K; (333 K) 0.125 ± 0.01 W/m/K; (343 K) 0.124 ± 0.01 W/m/K. Moreover, the thermal conductivity (353 K) came out at 0.124 ± 0.01 W/m/K.

(Values after the NIST ThermoML archive (doi:10.1021/je700176d).)
